According to patent US20220226354A1, “GLP-1 SECRETION-PROMOTING COMPOSITION” (SUNTORY HOLDINGS LIMITED, priority 2019, published 2022):

Test system: H716
Assay: GLP-1 secretion amount of sweeteners, 24 hours (Experimental Example 1)
Format: cell-based, human
Conditions: H716, 24 hours after addition of stock solution, PBS as negative control (no sample)
Protocol: RebA. RebB, RebM. RebN. RebD. RebC, MogV, and stevioside were examined for their GLP-1 secretion-promoting effects. Specifically, the amount of GLP-1 secretion was measured by the following procedures.
Each test substance B, C, D, E, F, G, I, or J was dissolved in PBS (Thermo Fisher Scientific Inc.) (Cat. No. 14190250) to obtain a stock solution. The concentration of the stock solution is shown below:
B (RebA); 5 mM, C (RebB); 1M, D (RebM); 2.5 mM, E (RebN); 1M, F (RebD); 2.5 mM, G (RebC); 2.5 mM, I (MogV); 1M, J(stevioside); 1M
H716 (ATCC) (Cat. No. ATCC®, CCL-251) was cultured in RPMI 1640 (10% FBS (Thermo Fisher Scientific Inc.) (Cat. No. 10439024), 1 mM Sodium Pyruvate) in an incubator at 37° C., 5% CO2.
The preculture was performed for 2 weeks, and the cells were sufficiently recovered, and then cell stocks were prepared.
Cells were seeded in 96-well plates at 2×10^5 cells/90 μL (high) per well (N=4). At this time, the content of FBS in the medium was lowered to 0.5% to suppress cell proliferation.
After 24 hours, the sample at the highest concentration (i.e., stock solution) was added by […] each.
After further 24 hours, quantitation of GLP-1 was performed. Specific procedures were followed the user guide of Human GLP-1 (7-36 amide) Immunoassay kit (Cat. No. AL359) (Lot number 2361115) provided by PerkinElmer, Inc. PBS was used as a negative control (no sample).

Row | Molecule | amount of GLP-1 secretion compared with no sample
1 | C=C1C[C@@]23CC[C@H]4[C@@](C)(CCC[C@@]4(C)C(=O)O[C@@H]4O[C@H](CO)[C@@H](O)[C@H](O)[C@H]4O)[C@@H]2CC[C@]1(O[C@@H]1O[C@H](CO)[C@@H](O)[C@H](O)[C@H]1O[C@@H]1O[C@H](CO)[C@@H](O)[C@H](O)[C@H]1O)C3 [stevioside, Stevioside] | significantly larger amounts of GLP-1 secretion than no sample
2 | C[C@H](CC[C@@H](O[C@@H]1O[C@H](CO[C@@H]2O[C@H](CO)[C@@H](O)[C@H](O)[C@H]2O)[C@@H](O)[C@H](O)[C@H]1O[C@@H]1O[C@H](CO)[C@@H](O)[C@H](O)[C@H]1O)C(C)(C)O)[C@H]1CC[C@@]2(C)[C@@H]3CC=C4[C@@H](CC[C@H](O[C@@H]5O[C@H](CO[C@@H]6O[C@H](CO)[C@@H](O)[C@H](O)[C@H]6O)[C@@H](O)[C@H](O)[C@H]5O)C4(C)C)[C@]3(C)[C@H](O)C[C@]12C [MogV, mogroside V] | significantly larger amounts of GLP-1 secretion than no sample
3 | rebaudioside B [RebB] | significantly larger amounts of GLP-1 secretion than no sample
4 | rebaudioside C [RebC] | significantly larger amounts of GLP-1 secretion than no sample
5 | C=C1C[C@@]23CC[C@H]4[C@@](C)(CCC[C@@]4(C)C(=O)O[C@@H]4O[C@H](CO)[C@@H](O)[C@H](O)[C@H]4O)[C@@H]2CC[C@]1(O[C@@H]1O[C@H](CO)[C@@H](O)[C@H](O[C@@H]2O[C@H](CO)[C@@H](O)[C@H](O)[C@H]2O)[C@H]1O[C@@H]1O[C@H](CO)[C@@H](O)[C@H](O)[C@H]1O)C3 [RebA, Rebaudioside A] | significantly larger amounts of GLP-1 secretion than no sample

Test system: not listed separately
Assay: Dissolution of sample during sample preparation (Experimental Example 2)
Format: physicochemical
Conditions: final concentration of 1.5 mM (#24), 1% DMSO-containing PBS
Protocol: To 20 mg of RebC, 21 μL of DMSO (manufactured by FUJIFILM Wako Pure Chemical Corporation, model number: 037-24053) was added. The mixture was then stirred by vortex and allowed to stand for several hours to obtain a stock solution having a RebC concentration of 1,000 mM. The obtained stock solution and PBS were used to prepare a 10 mM solution.
The 10 mM solution was diluted as needed with 1% DMSO-containing PBS to obtain Sample G-1 mM to Sample G-10 mM. The concentrations of RebC are described in Table 1.

Row | Molecule | dissolution of sample
6 | rebaudioside C [RebC] | not able to be dissolved
